Measured values published in article PMC8145938, “Triphenilphosphonium Analogs of Chloramphenicol as Dual-Acting Antimicrobial and Antiproliferating Agents” (Antibiotics, 2021).
Values after ≈ are worked out from the molar mass of the structure shown.

Experiments:
[1] = test system: E. coli S30 extract cell-free transcription-translation system; test: inhibition of firefly luciferase synthesis in cell-free bacterial translation system; format: biochemical; conditions: 30 µM compound
Method: The next step was to test the new CAM-Cn-TPP compounds for their ability to inhibit the synthesis of the firefly luciferase reporter in vitro in a cell-free transcription-translation system based on an E. coli S30 extract.
The inhibition of firefly luciferase synthesis in cell-free translation systems by CAM-Cn-TPP was tested with an E. coli S30 Extract System for Linear Templates (Promega, Madison, […], USA). The reactions were programmed with 100 ng of mRNA and were carried out in 5 μL aliquots at 37 °C for 30 min. The activity of in vitro synthesized luciferase was assessed using 5 μL of the substrate from the Steady-Glo Luciferase Assay System (Promega).

[2] = test system: E. coli ∆tolC-CAT; test: MIC determination, broth microdilution; format: cell-based; conditions: Escherichia coli
Method: (§1) E. coli ∆tolC CHL-resistant strain harboring plasmid encoding for chloramphenicol acetyltransferase (cat) (pCA24N-LacZ) and the control E. coli ∆tolC strain was used to evaluate the inhibitory effect of the compounds. CHL-resistant strains of B. subtilis pHT01-cat and B. subtilis pHT01-cfr were prepared by means of a transformation of a B. subtilis 168 strain with plasmids harboring the cat and cfr genes (chloramphenicol-florfenicol resistance) gene. The cfr gene encodes for the methyltransferase, which catalyzes the methylation of […] in the 23S rRNA and causes resistance to a variety of ribosome-targeting antibiotics that bind in the A site of the bacterial ribosome.
(§2) A standard laboratory strain of E. coli JW5503, with the deletion of the tolC gene, referred to here as the ∆tolC strain, was used to obtain the ∆tolC pCA24N-LacZ strain by means of transformation with the plasmid pCA24N-LacZ-harboring chloramphenicol acetyltransferase (cat) gene.
(§3) The MICs for CAM-Cn-TPP and Cn-TPP were determined by Mueller-Hinton broth microdilution, as recommended by CLSI in the Methods for Dilution Antimicrobial Susceptibility Tests for Bacteria that Grow Aerobically, Approved Standard, 9th ed., CLSI document M07-A9, using in-house-prepared panels. The compounds were diluted in a 96-well microtiter plate to final concentrations ranging from 0.5 to 360 μM in a 250-µL aliquot of the bacterial suspension, followed by incubation at 37 °C or 30 °C for 18 h. […] The bacterial growth was observed visually alongside OD measurements. The experiments were carried out in triplicate.

[3] = test system: E. coli ∆tolC; test: MIC determination, broth microdilution; format: cell-based; conditions: Escherichia coli
Method: as §1, §2, §3

[4] = test system: E. coli 70S ribosomes; test: competition-binding assay with BODIPY-ERY (fluorescence anisotropy); conditions: for Kd: displacement of BODIPY-ERY from E. coli 70S ribosomes, read-out: apparent dissociation constant (KDapp)
Excerpt: All new semi-synthetic CAM-Cn-TPP compounds were expected to bind and act on bacterial ribosomes by inhibiting protein synthesis, which is similar to CAM-C4-TPP and the PTC-targeting parent antibiotic CHL. To assess the affinity of CAM-C10-TPP and CAM-C14-TPP for the bacterial 70S ribosome (Figure 2A), a competition-binding assay exploiting BODIPY-labeled erythromycin (BODIPY-ERY) was used. […] It is likely that in the case of CAM-C14-TPP, the linker may be too long, preventing the optimal positioning of the TPP moiety in the NPET. Thus, CAM-C10-TPP and CAM-C14-TPP bind to the bacterial ribosome. However, their affinity strongly depends on the length of the linker connecting the two […]. Among the three CAM-Cn-TPPs, the C10-linker was optimal in terms of its ability to bind to the 70S ribosome.
The binding affinity of CAM-Cn-TPP to E. coli ribosomes was analyzed by a competition-binding assay using the fluorescently-labeled BODIPY-ERY, as described before. BODIPY-Ery (16 nM) was incubated with the ribosomes (50 nM) in the buffer containing 20 mM HEPES-KOH (pH 7.5), 50 mM NH4Cl, 10 mM Mg(CH3COO)2, 4 mM mercaptoethanol, and 0.05% Tween-20 for 30 min at 25 °C. Solutions of CHL, CAM-Cn-TPP, and CnTPP in different concentration ranges were added to the formed complex. The mixture was incubated for 2 h, until an equilibrium was reached, and the values of fluorescence anisotropy were measured by VICTOR X5 Multilabel Plate Reader (Perkin Elmer, Waltham, MA, USA). The dissociation constants were calculated based on the assumption of the equilibrium competitive binding of two ligands at a single binding site, as described in [70].

[5] = test system: HEK293T; test: MTT assay growth inhibition; format: cell-based; conditions: Homo sapiens, HEK-293T, 72 h, read-out: 50% growth inhibition concentration (GI50)
Method: (§4) The cytotoxicity of the tested substances was tested using the MTT (3-(4,5-dimethylthiazol-2-yl)-2,5-diphenyltetrazolium bromide) assay, with some modifications, and 2500 cells per well for the MCF7, HEK293T, and A549 cell lines or 4000 cells per well for the VA-13 cell line were plated in 135 µL of DMEM-F12 media (Gibco, Waltham, MA, USA) in a 96-well plate and incubated in the 5% CO2 incubator for first 16 h, without treatment. Then, 15 µL of media-DMSO solutions of the tested substances was added to the cells (the final DMSO concentrations in the media were 1% or less) and treated cells for 72 h with 25 nM–50 µM (eight dilutions) of our substances (triplicate each), and serial DMSO dilutions and doxorubicin were used as controls. The MTT reagent (Paneco LLC, Moscow, Russia) was then added to cells to a final concentration of 0.5 g/L (10× stock solution in PBS was used) and incubated for 2.5 h at 37 °C in the incubator under an atmosphere of 5% CO2. The MTT solution was then discarded, and 140 µL of DMSO (PharmaMed LLC, Krasnodarsky Krai, Russia) was added. The plates were swayed on a shaker (60 rpm) to dissolve the formazan. The absorbance was measured using a microplate reader (VICTOR X5 Light Plate Reader, PerkinElmer, Waltham, MA, USA) at a wavelength of 565 nm (in order to measure formazan concentration). The results were used to construct a dose-response graph and to estimate the CC50 value.

[6] = test system: VA13; test: MTT assay growth inhibition; format: cell-based; conditions: VA-13, 72 h, read-out: 50% growth inhibition concentration (GI50)
Method: as §4

[7] = test system: MCF7; test: MTT assay growth inhibition; format: cell-based; conditions: Homo sapiens, 72 h, read-out: 50% growth inhibition concentration (GI50)
Method: as §4

[8] = test system: A549; test: MTT assay growth inhibition; format: cell-based, human; conditions: for selectivity of action for A549 and noncancerous VA13 cell lines: A549 vs VA13; for GI50: Homo sapiens, A549, MTT, 72 h, read-out: 50% growth inhibition concentration (GI50)
Method: as §4

Structure (SMILES) | inhibition of bacterial translation (luciferase synthesis) [1] | MIC [2] | MIC [3] | Kd [4] | greater affinity to the ribosome compared to CAM-C4-TPP ([4]; ratio of KDapp) | greater affinity to the ribosome compared to the parent CHL ([4]; ratio of KDapp) | GI50 [5] | GI50 [6] | GI50 [7] | selectivity of action for A549 and noncancerous VA13 cell lines [8] | GI50 [8] | lower affinity to the 70S ribosome compared to CHL ([4]; ratio of KDapp) | lower affinity to the 70S ribosome compared to other CAM-Cn-TPPs ([4]; ratio of KDapp)
O=C(CCCCCCCCCC[P+](c1ccccc1)(c1ccccc1)c1ccccc1)N[C@H](CO)[C@H](O)c1ccc([N+](=O)[O-])cc1 [CAM-C10-TPP, (N-{[(1R,2R)-1,3-dihydroxy-1-(4-nitrophenyl)propan-2-yl]amino}-11-oxoundecyl)(triphenyl)phosphonium bromide] | inhibits bacterial translation | 25 µM | 3 µM | 400 ± 40 nM | ~ 1.5 fold | ~ 7 fold | 620 ± 40 nM | 2800 ± 500 nM | 1000 ± 100 nM | approximately 4 times | 700 ± 100 nM |  | 
O=C(CCCCCCCCCC[P+](c1ccccc1)(c1ccccc1)c1ccccc1)NCCCC(=O)N[C@H](CO)[C@H](O)c1ccc([N+](=O)[O-])cc1 [CAM-C14-TPP, N-[(1R,2R)-1,3-dihydroxy-1-(4-nitrophenyl)propan-2-yl]-4-(triphenyl)phosphoniumundecanamidobutamide bromide] | inhibits bacterial translation | 12.5 µM | 12.5 µM | 36000 ± 9000 nM |  |  | 3600 ± 500 nM | 5200 ± 900 nM | 5800 ± 800 nM | ~2 times | 2900 ± 400 nM | ~ 13 fold | 60-90 fold
O=C(N[C@H](CO)[C@H](O)c1ccc([N+](=O)[O-])cc1)C(Cl)Cl [CHL, chloramphenicol] | inhibits bacterial translation | > 360 µM | 2.8 µM (≈ 0.905 µg/mL) | 2800 ± 400 nM |  |  | > 50000 nM | > 50000 nM | > 50000 nM |  | > 50000 nM |  | 
